# Experimental data as given in paper PMC9465256, “Discovering monoacylglycerol lipase inhibitors by a combination of fluorogenic substrate assay and activity-based protein profiling” (Frontiers in Pharmacology, 2022).
# Assays:
# [1] = tested on: serine hydrolases labeled by FP-TAMRA in mouse brain membrane proteome; assay: Competitive ABPP selectivity assay, mouse brain membrane proteome; assay type: biochemical; settings: 100 µM, FP-TAMRA 250 nM
# Method: Mouse brains were dounce homogenized lysis buffer (20 mM HEPES, 2 mM DTT, 1 mM MgCl2, 25 U/mL benzonase) and incubated on ice for 15 min, followed by low-speed spin (2,500 g, 3 min, 4 C) to remove debris. The supernatant was subjected to ultracentrifugation (100,000 g, 45 min, 4°C) to generate the cytosolic fraction in the supernatant, as well as the membrane fraction as a pellet. After removal of the soluble supernatant, the pellet was resuspended in storage buffer (20 mM HEPES, 2 mM DTT) by pipetting. Total protein concentrations in membrane and soluble fractions were determined using a Qubit protein assay (Invitrogen). The obtained samples were stored at −80°C until further use.
# The competitive ABPP selectivity assay was performed according to the previously reported protocol. Briefly, mouse brain membrane proteome (2 mg/ml, 20 µl) was preincubated for 30 min with 0.5 µl of DMSO (vehicle) or inhibitor (100 μM, finial concentration). […] The reactions were then quenched by 10 µl sample buffer (×4). The obtained samples were directly loaded and resolved on SDS-PAGE gel (10% acrylamide). The gels were then scanned and analyzed using a ChemiDoc MP system (Cy3 settings, BioRad). All the samples were measured and duplicated.
# [2] = tested on: endogenous MAGL in cancer cells; assay: Competitive ABPP in cancer cell lysates: MAGL band; assay type: biochemical; settings: 100 µM, FP-TAMRA 500 nM
# Method: To identify the potential off-targets of the compounds with anti-cancer activities, ABPP was applied. Cancer cells were seeded in the dishes and were washed with PBS, scraped, centrifugated (3,000 × g, 3 min) and pellets snap frozen in liquid in nitrogen. For ABPP experiments, the cell pellets were lysed by probe sonication (3 × 10 bursts) in PBS, followed by the determination of protein concentration of the intact cell lysate by Qubit assay. […] The reactions were then quenched by 10 µl sample buffer (×4). The obtained samples were directly loaded and resolved on SDS-PAGE gel (10% acrylamide). The gel-based ABPP results were then scanned and analyzed using a ChemiDoc MP system (Cy3 settings, BioRad).
compound,measurement,setting,value
"C[C@H]1COC2=C1C(=O)C(=O)c1c2ccc2c1CCCC2(C)C [compound 23, Cryptotanshinone]",selectivity profile over serine hydrolases,[1],broad-spectrum inhibitors that cross-reacted with multiple serine hydrolases
same,"labeling of endogenous MAGL, A549","[2]; 30 min, A549 cell lysate",completely reduced the labeling
same,"labeling of endogenous MAGL, B16-F10","[2]; 30 min, B16-F10 cell lysate",completely reduced the labeling
same,"labeling of endogenous MAGL, H1975","[2]; 30 min, H1975 cell lysate",completely reduced the labeling
same,"labeling of endogenous MAGL, HCC827","[2]; 30 min, HCC827 cell lysate",completely reduced the labeling
same,"labeling of endogenous MAGL, HT-29","[2]; 30 min, HT-29 cell lysate",completely reduced the labeling
same,"labeling of endogenous MAGL, Hela","[2]; 30 min, Hela cell lysate",completely reduced the labeling
same,"labeling of endogenous MAGL, OVCAR-3","[2]; 30 min, OVCAR-3 cell lysate",completely reduced the labeling
same,inhibition of endogenous MAGL in the tested cancer cell lines,[2]; cancer cell lysates,nearly complete inhibition
